From patent US20220257593A1, “CARABACHOL-BROMONIDINE FORMULATION TO ENHANCE ANTI-PRESBYOPIA EFFECTS” (Visus Therapeutics, Inc., priority 2019, published 2022)
Values joined by “and” are separate entries in the source; they are usually repeats but may differ in a detail not shown here. Equal values may be shown once. “Also recorded” adds a separate entry of the source. Read-outs that look alike come from different tables or passages of the source. Values belong to the molecule of their own block, whether it stands above or below them.

Experiments:
[1] = test system: emmetropic and presbyopic subjects, non-dominant eye; assay: Examples 7 and 13 crossover trial: near visual acuity, combined vs separate 3% carbachol and 0.2% brimonidine, carbachol alone, brimonidine alone; assay type: in vivo, human; conditions: for NVA (mean near visual acuity): mean ± SD, ten subjects, pre-treatment 8.6 ± 1.5
Procedure: Participants were volunteers selected at random.
(§1) A prospective, double-masked, randomized, controlled clinical trial was conducted.
Participants were randomly selected volunteers.
(§2) The 3% carbachol drops included 50 ppm of benzalkonium chloride.

[2] = test system: emmetropic and presbyopic subjects, non-dominant eye; assay: Examples 7 and 13 crossover trial: pupil size (Colvard infrared pupilometer); assay type: in vivo, human; conditions: for PS (mean pupil size): mean ± SD, ten subjects, pre-treatment 4.3 ± 0.5
Procedure: as §1, §2

[3] = test system: emmetropic, myopic and hyperopic presbyopes
presbyopic subjects [4] = conditions: subjects receiving brimonidine drops
[5] = test system: presbyopic subjects, non-dominant eye; assay: Example 8 dose range studies of carbachol and pilocarpine with and without brimonidine: near visual acuity (LogMAR) and pupil diameter; assay type: in vivo, human; conditions: for change in LogMAR VA, pilocarpine vs carbachol, each plus 0.2% brimonidine: FIGS. 12 and 13
Procedure: Dose range studies were performed for carbachol and pilocarpine. […] Pilocarpine and carbachol were also compared to each other, with and without brimonidine.

presbyopic subjects [6] = assay: Example 8 dose range studies: tolerability, adverse symptoms and satisfaction survey
From the text: Both Groups 1 and 2 received the same pre- and post-treatment work-up and measurements: Age, gender, initial pupil size, and near vision acuity (NVA) were documented.
The survey asked the patients whether they would use the drops again.

[7] = FDA product insert for isoptocarpine; cited from earlier work
[8] = Example 8: stability of pilocarpine at neutral pH; assay type: physicochemical; conditions: needs about pH 5

Structure (SMILES): C[N+](C)(C)CCOC(N)=O [3% carbachol alone, carbachol]
NVA (mean near visual acuity) ([1]; 1-h post-treatment): 5.5 ± 1 J | NVA (mean near visual acuity) ([1]; 2-h post-treatment): 5.9 ± 0.8 J | NVA (mean near visual acuity) ([1]; 4-h post-treatment): 7 ± 1.2 J | NVA (mean near visual acuity) ([1]; 8-h post-treatment): 7.5 ± 1 J | mean near visual acuity (NVA) ([1]; 1 h post-treatment, before treatment J 8.6±1.5, 10 subjects crossover): 5.5 ± 1 J | mean near visual acuity (NVA) ([1]; 2 h post-treatment): 5.9 ± 0.8 J | mean near visual acuity (NVA) ([1]; 4 h post-treatment): 7 ± 1.2 J | mean near visual acuity (NVA) ([1]; 8 h post-treatment): 7.5 ± 1 J | hours in which mean near visual acuity (NVA) was ≥20/40 ([1]; emmetropic presbyopes, FIG. 25): never achieved an NVA of ≥20/40 | PS (mean pupil size) ([2]; 1-h post-treatment): 2.8 ± 0.3 mm | PS (mean pupil size) ([2]; 2-h post-treatment): 3 ± 0.3 mm | PS (mean pupil size) ([2]; 4-h post-treatment): 3.5 ± 0.3 mm | PS (mean pupil size) ([2]; 8-h post-treatment): 4 ± 0.3 mm | mean pupil size (PS) ([2]; 1 h post-treatment, before treatment 4.3±0.5 mm): 2.8±0.3 mm | mean pupil size (PS) ([2]; 2 h post-treatment): 3±0.3 mm | mean pupil size (PS) ([2]; 4 h post-treatment): 3.5±0.3 mm | mean pupil size (PS) ([2]; 8 h post-treatment): 4±0.3 mm | hours in which mean pupil size reached the target pupil size of <2.5 mm ([2]; emmetropic presbyopes, FIG. 24): never achieved the target pupil size during hours 1-8

mild burning sensation, number of subjects (presbyopic subjects [4]): 10 subjects
Structure (SMILES): Brc1c(NC2=NCCN2)ccc2nccnc12 [Brimonidine 0.2%, brimonidine]
difference in mean NVA before treatment and at any time point after treatment ([3]; Group 1 emmetropic presbyopes): No statistically significant difference in mean NVA | difference in mean NVA before treatment and at any time point after treatment ([3]; Group 2 myopic presbyopes): No statistically significant difference in mean NVA | difference in mean NVA before treatment and at any time point after treatment ([3]; Group 3 hyperopic presbyopes): No statistically significant difference in mean NVA | NVA (mean near visual acuity) ([1]; 1-h post-treatment): 7.7 ± 1.3 J | NVA (mean near visual acuity) ([1]; 2-h post-treatment): 8.2 ± 1.3 J | NVA (mean near visual acuity) ([1]; 4-h post-treatment): 8.5 ± 1.4 J | NVA (mean near visual acuity) ([1]; 8-h post-treatment): 8.6 ± 1.5 J | difference in mean NVA before treatment and at any time point after treatment ([1]; P >0.05): no statistically significant difference | mean change / improvement in near visual acuity compared among combination, separate drops, carbachol alone, brimonidine alone ([1]; over eight hours): the least | PS (mean pupil size) ([2]; 1-h post-treatment): 3.95 ± 0.5 mm | PS (mean pupil size) ([2]; 2-h post-treatment): 4.2 ± 0.4 mm | PS (mean pupil size) ([2]; 4-h post-treatment): 4.3 ± 0.5 mm | PS (mean pupil size) ([2]; 8-h post-treatment): 4.3 ± 0.5 mm | effect on pupil size or NVA ([2]; 50 ppm benzalkonium chloride): virtually no effect | difference in mean PS before treatment and at any time point after treatment ([2]; P >0.05): no statistically significant difference | miotic effect ([2]; first hour after instillation, light luminance conditions, not significant (P >0.05)): mild miotic effect | synergy with carbachol and pilocarpine ([5]; 0.2% brimonidine): synergistic with both carbachol and pilocarpine

Structure (SMILES): CC[C@@H]1C(=O)OC[C@@H]1Cc1cncn1C [Pilo Alone]
Pilo Alone 1 hr nVA ([5]; Pilo 0.5%, individual patients): 3 J and 6 J and 5 J | Pilo Alone 1 hr pupil ([5]; Pilo 0.5%, individual patients): 3.8 and 3 (2×) | Pilo Alone 2 hrs nVA ([5]; Pilo 0.5%, individual patients): 5 J (2×) and 3 J (2×) | Pilo Alone 2 hrs pupil ([5]; Pilo 0.5%, individual patients): 3 and 4 and 2.5 and 3.3 | Pilo Alone 4 hrs nVA ([5]; Pilo 0.5%, individual patients): 5 J (3×) and 3 J | Pilo Alone 4 hrs pupil ([5]; Pilo 0.5%, individual patients): 3.3 and 4 and 3 and 4.2 | Pilo Alone 1 hr nVA ([5]; Pilo 1%, individual patients): 3 J (2×) and 2 J and 8 J | Pilo Alone 1 hr pupil ([5]; Pilo 1%, individual patients): 2.5 (2×) and 1.5 and 3 | Pilo Alone 2 hrs nVA ([5]; Pilo 1%, individual patients): 3 J and 2 J (2×) and 8 J | Pilo Alone 2 hrs pupil ([5]; Pilo 1%, individual patients): 3 (2×) and 1.5 and 2.5 | Pilo Alone 4 hrs nVA ([5]; Pilo 1%, individual patients): 5 J (2×) and 3 J and 10 J | Pilo Alone 4 hrs pupil ([5]; Pilo 1%, individual patients): 4 (2×) and 2.5 and 3 | Pilo Alone 1 hr nVA ([5]; Pilo .05%, patient 5): 3 J | Pilo Alone 1 hr pupil ([5]; Pilo .05%, patient 5): 2.5 | Pilo Alone 4 hrs pupil ([5]; Pilo […], individual patients): 4

Structure (SMILES): C[N+](C)(C)CCOC(N)=O [carbachol, reference compound]
dose response for tolerability (presbyopic subjects [6]; carbachol […], […], 3% plus brimonidine, seven days, FIG. 15): An inverse dose response | change in LogMAR VA, pilocarpine vs carbachol, each plus 0.2% brimonidine [5]: favored carbachol for hours 8 and 10 | duration of effect ([5]; in vivo): 8 h

Structure (SMILES): CC[C@@H]1C(=O)OC[C@@H]1Cc1cncn1C [pilocarpine, reference compound]
brow ache rate [7]: > 5% | burning (presbyopic subjects [6]; in vivo): burned | change in LogMAR VA, pilocarpine vs carbachol, each plus 0.2% brimonidine [5]: favored pilocarpine for hours 1 and 2 | onset and duration of effect ([5]; compared with carbachol): more immediate effect; also recorded: shorter duration | stability at neutral pH [8]: unstable at neutral pH
